“Also recorded” adds a separate entry of the source.
Tests used:
TEAD = experiment: Competition pulldown with biotinylated MYF-01-37; type: cell-based; settings: MDA-MB-231 cells pretreated 6 hours with 10, 25 and 50 µM
Protocol: MDA-MB-231 cells were incubated for 6 hours with 10, 25 and 50 µM MYF-01-37, followed by cell lysis. The lysates were subjected to pulldown with 50 µM biotinylated MYF-01-37 overnight, and the amount of TEAD pulled down was analyzed by western blotting.

EGFR-mutant NSCLC cells = experiment: Caspase-3/7 activity monitoring (apoptosis); type: cell-based, human; settings: combined with osimertinib/trametinib vs osimertinib/trametinib alone
Protocol: Cells were plated into 96-well plates at 3000 cells/well in 100 µl of growth medium. The next day, drugs were added onto cells in 50 µl containing CellEvent™ Caspase-3/7 Green ReadyProbes™ Reagent (Molecular Probes) as per manufacturer’s instructions (n=5-6 wells / condition). The wells were subsequently scanned every 2 hours using the Incucyte ZOOM live cell analysis system (Essen Bioscience) typically for a total of 72 hours. The acquired fluorescent signal for activated caspase-3/7 was normalized with well confluency at each timepoint (=normalized apoptosis). Peak apoptosis was determined as the highest normalized caspase-3/7 activity value during the assay.

YAP/TEAD interaction = YAP/TEAD interaction assay (split Gaussia luciferase); type: cell-based; settings: HEK 293T cells
Protocol: 293T cells were plated in 24-well plates and transfected with N-GLuc-YAP and C-GLuc-TEAD using TransIT-293 (Mirus Bio). The pCMV-Red Firefly Luc Vector (Life Technologies) was used as an internal control. Cells were treated with indicated concentrations of compounds or vehicle control (DMSO) in duplicates. Luciferase activity was measured by Dual-Luciferase Assay (Promega, Madison, WI) according to the manufacturer’s manual.

TEAD2 protein = TEAD2 protein (Homo sapiens, UniProt Q15562); experiment: Mass spectrometry analysis of covalent labeling of TEAD2 protein; type: binding; settings: 20-fold molar excess, 6 hours at 37° C.
TEAD2 protein, sequence (Q15562 whole entry): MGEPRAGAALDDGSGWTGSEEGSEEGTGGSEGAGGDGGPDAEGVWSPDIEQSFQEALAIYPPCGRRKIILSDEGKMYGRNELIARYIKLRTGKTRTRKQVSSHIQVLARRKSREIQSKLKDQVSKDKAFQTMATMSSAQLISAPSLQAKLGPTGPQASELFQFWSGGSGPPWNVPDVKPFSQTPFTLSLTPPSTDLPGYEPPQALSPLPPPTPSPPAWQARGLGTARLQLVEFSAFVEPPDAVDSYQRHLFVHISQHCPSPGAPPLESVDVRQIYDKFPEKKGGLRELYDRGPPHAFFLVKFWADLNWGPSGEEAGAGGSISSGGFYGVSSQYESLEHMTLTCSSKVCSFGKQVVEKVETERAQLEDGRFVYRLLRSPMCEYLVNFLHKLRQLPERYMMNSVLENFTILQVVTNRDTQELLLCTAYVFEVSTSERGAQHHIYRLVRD
Protocol: TEAD2 protein was incubated with DMSO or a 20-fold molar excess of MYF-01-37 for 6 hours at 37° C. Reactions were then analyzed by LC-MS using a Shimadzu autosampler and LC (Marlborough, MA) coupled to an LTQ ion trap mass spectrometer (ThermoFisher Scientific, San Jose, CA). Protein was injected onto a self packed column (0.5 mm I.D., packed 5 cm POROS 50R2 from Applied Biosystems, Framingham, MA), desalted for 4 minutes with 100% A (A=0.2 M acetic acid in water), eluted with a gradient (0-100% B in 1 minute; A=0.2 M acetic acid in water, B=0.2 M acetic acid in acetonitrile), and introduced to the mass spectrometer by electrospray ionization (spray voltage=4.5 kV). The mass spectrometer acquired full scan MS data (m/z 300-2000). […]
To identify the site of modification, labeled protein was diluted 1:1 with 100 mM ammonium bicarbonate, reduced with 10 mM DTT at 56° C. for 30 minutes, alkylated with 22.5 mM IAA for 30 minutes at room temperature, and then digested with trypsin overnight at 37° C. Tryptic peptides were desalted by C18 (SOLA, ThermoFisher Scientific), dried by vacuum centrifugation, reconstituted in 5% MeCN, 0.1% trifluoroacetic acid, and analyzed by nanoLC-ion mobility MS/MS using a NanoAcquity UPLC system (Waters Corp., Milford, MA) interfaced to a timsTOF Pro mass spectrometer (Bruker, Billerica, MA). […]

[1] = system: YAP activity in PC-9 YAP reporter cells; experiment: Fluorescent YAP/Hippo pathway reporter assay (Incucyte live-cell imaging); type: cell-based, human; settings: for YAP activity (reporter) induced by osimertinib/trametinib: compound added to osimertinib/trametinib
Protocol: YAP activity -induced mCherry expression was quantified using the Incucyte ZOOM live-cell analysis system. The mCherry signal was normalized to well confluency at each time point. For simultaneous detection of YAP activity and apoptosis, the cells were plated as above, and treated in the presence of CellEvent™ Caspase-3/7 Green ReadyProbes™ Reagent (Molecular Probes) as per manufacturer’s instructions. The mCherry signal as well as the green fluorescence signal was quantified every 2 hours using Incucyte ZOOM.

[2] = system: EGFR-mutant NSCLC cell lines; experiment: Regrowth after drug washout and count of viable dormant cells; type: cell-based, human
Protocol: To determine number of dormant cells after treatment, viable cells were manually counted from the Incucyte images. A total of 10-12 wells with 3 images per well was analyzed for each condition.

CTGF expression = experiment: QPCR analysis of YAP target gene CTGF expression; type: cell-based, human; settings: 24 hour treatment; for CTGF expression in cells overexpressing TEAD1 C359S mutant: PC-9 cells transduced with TEAD1 C359S
BMF expression = experiment: QPCR analysis of BMF expression; type: cell-based, human; settings: combined with osimertinib/trametinib, 24 hour treatment
Protocol: Cells were plated at 15 × 10^4 cells / cm^2, treated the next day, and RNA samples were extracted at specified timepoints using the RNeasy Mini kit (Qiagen). The RNA concentrations were measured with Nanodrop (Thermo Fisher Scientific) and 1 µg of total RNA was used for cDNA synthesis using the QuantiTect Reverse Transcription Kit (Qiagen). The QPCR reactions were set up in 20 µl using Taqman Gene Expression Master Mix (Applied Biosystems, cat. 4369016), Taqman Gene Expression Assays (Applied Biosystems) as per manufacturer’s instructions, and 2 µl of 1:10 diluted cDNA. The following Taqman Gene Expression Assays were used in the study: CTGF (Hs01026927_ml), ANKDR1 (Hs00173317_ml), BMF (Hs00372937 _m1), SNAI1(Hs00195591_m1), SNAI2 (Hs00161904_m1), TWIST1 (Hs00361186_m1), TWIST2 (Hs02379973_s1), ZEB1 (Hs00232783_m1), ZEB2 (Hs00207691_m1), and ACTB (Hs01060665_g1). The reactions were run in StepOne Plus Real-time PCR System (Applied Biosystems) using default reaction settings. The gene expression levels were normalized to ACTB housekeeping gene expression levels in each sample. For the analysis of BMF expression in vivo, RNA was extracted from 25-30 mg snap-frozen tumor samples using RNeasy Mini kit according to the kit protocol. Reverse transcription and gene expression analyses were performed as above.

[3] = system: EGFR-mutant NSCLC cell lines; experiment: Cell viability assay (Cell Titer Glo); type: cell-based, human; settings: several EGFR-mutant NSCLC cell lines
PC-9 cells = experiment: Long-term cell growth assay (well confluency, Incucyte); settings: continuous treatment with single-agent osimertinib (100 nM)
[4] = system: PC-9, HCC827 and HCC4006 cells
Protocol: PC-9, HCC827 and HCC4006 were plated into 6-well plates at 50 000 cells / well, and treated the next day with DMSO, 100 nM osimertinib or with the combination of 100 nM osimertinib and 30 nM trametinib in triplicate. […] After staining, cells were imaged (5 images / well), and stained cells were manually counted from the images.

Compound	apoptosis (EGFR-mutant NSCLC cells)	YAP activity (reporter) induced by osimertinib/trametinib [1]	regrowth after one week triple combination followed by two weeks osimertinib/trametinib vs three-week continuous triple combination ([2]; PC-9 cells)	CTGF expression in cells overexpressing TEAD1 C359S mutant (CTGF expression)	BMF expression (BMF expression)	cell viability as a single agent [3]	further results
C=CC(=O)N1CCC(Nc2cccc(C(F)(F)F)c2C)C1 (centres unmarked) [MYF-01-37]	significantly increased apoptosis	completely suppressed the increased YAP activity	identical potency	abrogated	robust increase in BMF expression	minimal impact on cell viability; also recorded: did not demonstrate single-agent toxicity	TEAD pull-down by biotinylated MYF-01-37 from whole-cell lysate (TEAD): loss of direct TEAD pull-down; YAP/TEAD interaction (YAP/TEAD interaction): inhibition of direct YAP/TEAD interaction; site of covalent modification (TEAD2 protein): targeted cysteine 380; dormant cells after treatment ([2]; PC-9 and HCC4006 cells, 10-day treatment in combination with osimertinib/trametinib vs osimertinib/trametinib alone): dramatic decrease in dormant cells; CTGF expression (CTGF expression; PC-9 cells): reduction in canonical YAP target gene CTGF expression
O=C(CCl)c1ccccc1Nc1cccc(C(F)(F)F)c1 [TED-347]	–	–	–	–	–	significant toxicity	–
O=c1[nH]c(-c2ccc(C(F)(F)F)cc2)nc2c1CSCC2 [XAV939]	robust increase in apoptosis	completely blocked	identical potency	still able to inhibit CTGF expression	significantly increased BMF expression	–	number of dormant cells at the time of drug washout ([2]; PC-9 cells, 21-day treatment combined with osimertinib/trametinib vs osimertinib/trametinib alone): dramatic decrease in the number of dormant cells; regrowth of cells after drug washout ([2]; three-week treatment combined with osimertinib/trametinib, then washout): significant reduction in regrowth
C=CC(=O)Nc1cc(Nc2nccc(-c3cn(C)c4ccccc34)n2)c(OC)cc1N(C)CCN(C)C [osimertinib]	–	–	–	–	–	–	proportion of YAP^high cells ([1]; 10-day treatment): 40%; proportion of cells with absent YAP signal ([1]; 10-day treatment): 60%; time to re-colonization of wells (PC-9 cells): ≤ 8 weeks; cells positive for SA-β-Gal activity [4]: significantly smaller proportion

Reference: patent US20230192607A1, “TRANSCRIPTIONAL ENHANCED ASSOCIATE DOMAIN (TEAD) TRANSCRIPTION FACTOR INHIBITORS AND USES THEREOF” (Dana-Farber Cancer Institute, Inc., priority 2019, published 2023)
